In general, MIC refers to the least concentration at which growth counts as inhibited.

Values after ≈ are worked out from the molar mass of the structure shown. Counter-ions that a name gives are not always drawn. Like-named read-outs stand apart in the source and are kept apart here. Bounds are passed on as bounds.

The test system of one assay is Pythium ultimum (PYU). Description: In-vitro plant fungicide test. It is filed as cell-based. The note with it: Globisporangium ultimum; 25 ppm; Table IVa; read-out: % Control at 25 ppm PYU.
A further assay relates to Piricularia oryzae (PIR). Description: microbe, parasite or virus in culture. It is filed as cell-based. The note with it: read-out: % Control at 25 ppm PIR.
The subject of a further assay is THREE FUNGI. Description: MIC test against three fungi in Mycophile Broth, pH 5.0, read after 8 days (Table VII). It is filed as cell-based. The note with it: 192 h.
The subject of the next assay is Rhizoctonia solani (RHI). In words: In-vitro plant fungicide test. It is filed as cell-based. The note with it: Rhizoctonia solani; 25 ppm; Table IVa; read-out: % Control at 25 ppm RHI.
In assay [1] the test system is Aureobasidium pullulans (APUL). Description: Minimum inhibitory concentration (MIC), broth two-fold serial dilution test. It is filed as cell-based. The note with it: Aureobasidium pullulans.
A further assay concerns Escherichia coli (ECOL). Described as above. The note with it: Escherichia coli, read-out: MIC (G-) ECOL, M9G (minimal salts media with glucose).
Assay [2] concerns Cochliobolus sativus (HEL). In words: In-vitro plant fungicide test. It is filed as cell-based. The note with it: Bipolaris sorokiniana, 25 ppm; Table IVa; *=Phytotoxic; read-out: % Control at 25 ppm HEL.
The test system of assay [3] is Phytophthora capsici (PHY). In words: In-vitro plant fungicide test. The note with it: Phytophthora capsici; 25 ppm; Table IVa; read-out: % Control at 25 ppm PHY. It is filed as cell-based.
For a further assay, the system named is Septoria nodorum (SEP). Description: In-vitro plant fungicide test. It is filed as cell-based. The note with it: Parastagonospora nodorum, 25 ppm; Table IVa; read-out: % Control at 25 ppm SEP.
In another assay the test system is Botrytis cinerea (BOC). In words: In-vitro plant fungicide test. It is filed as cell-based. The note with it: Botrytis cinerea, 25 ppm; Table IVa; *=Phytotoxic; read-out: % Control at 25 ppm BOC.
Assay [4] relates to Xanthomonas campestris (XAN). In words: In-vitro plant fungicide test. It is filed as cell-based. The note with it: Xanthomonas campestris; 25 ppm; Table IVa; read-out: % Control at 25 ppm XAN.
In a further assay the test system is Fusarium roseum (FUS). In words: In-vitro plant fungicide test. It is filed as cell-based. The note with it: Fusarium sambucinum, read-out: % Control at 25 ppm FUS, 25 ppm; Table IVa; *=Phytotoxic.
Assay [5] concerns Pseudomonas aerugenosa (PSAE). In words: Minimum inhibitory concentration (MIC), broth two-fold serial dilution test. The note with it: Pseudomonas, read-out: MIC (G-) PSAE, M9G (minimal salts media with glucose).
Assay [6] deals with Staphylococcus aureus (SAUR). Described as above. The note with it: Staphylococcus aureus, read-out: MIC (G+) SAUR, M9G (minimal salts media with glucose).
Description: (§1) When the test is ready to be done, each vessel in the dilution series, except the first vessel, contains an equal volume of compound free broth. The first vessel contains twice the volume of broth with the starting concentration of test compound. One half of the broth from the first vessel is transferred to the second vessel. After being mixed, one half the resulting volume is removed from the second vessel and transferred to the third vessel. The entire cycle is repeated sufficiently to give a series of concentrations amounting to 500, 250, 125, 63, 31, 16, 8, and 4 ppm (or 100, 50, 25, 12.5, 6.2, 3.1, 1.6, and 0.8), respectively.
(§2) Each vessel is then inoculated with a cell suspension of the appropriate test organism. Bacteria are grown in broth, fungi on agar slants for a time and at a temperature appropriate to the species being tested, and algae are a mixture of green algae and blue-green bacteria grown in a nutrient media. At the end of the growth period, in the case of bacteria, the broth is vortexed to disperse the cells.
(§3) The vessels are then incubated at the appropriate temperature. After the incubation, the vessels are examined for growth/no growth.
For assay [7], the system named is Pseudomonas fluorescens (PSFL). Described as above. The note with it: Pseudomonas fluorescens, read-out: MIC (G-) PSFL, M9G (minimal salts media with glucose).
Another assay deals with Aspergillus niger (ANIG). Described as above. It is filed as cell-based. The note with it: Aspergillus niger.
Setting [8] is: Aspergillus niger, pH 5, read-out: MIC ANIG, Aspergillus niger, serial dilutions from 50 ppm, read after 8 days of incubation.
[9] abbreviates: Aureobasidium pullulans, pH 5, read-out: MIC APUL, Aureobasidium pullulans, serial dilutions from 50 ppm, read after 8 days of incubation.
The mark [10] stands for this setting: Gloeophyllum trabeum, pH 5, read-out: MIC GTRA, Gloeophyllum trabeum, serial dilutions from 50 ppm, read after 8 days of incubation.
[11] abbreviates: Aspergillus niger, serial dilutions from 50 ppm, read after 8 days of incubation, read-out: MIC ANIG.
[12] abbreviates: Aureobasidium pullulans, serial dilutions from 50 ppm, read after 8 days of incubation, read-out: MIC APUL.
Where [13] appears, read: Gloeophyllum trabeum, serial dilutions from 50 ppm, read after 8 days of incubation, read-out: MIC GTRA.
Setting [14] is: M9G (minimal salts media with glucose), Table IIIc, iodopropargyl esters of peptides, read-out: MIC (F) APUL.
[15] abbreviates: Table IIIc, iodopropargyl esters of peptides.
Where [16] appears, read: M9G (minimal salts media with glucose), Table IIIc, iodopropargyl esters of peptides, read-out: MIC (F) ANIG.

Description for Escherichia coli (ECOL): as §1, §2, §3

Turning to `C[C@@H](OCc1ccccc1)[C@H](N)C(=O)OCC#CI` [Compound 11, O-benzyl-L-threonine iodopropargyl ester trifluoroacetate], the inhibition of growth at 25 ppm with Pythium ultimum (PYU) was 100%; in the assay with Piricularia oryzae (PIR) it was 100%; in the assay with Rhizoctonia solani (RHI), 100%; in assay [2], 95%; in assay [3], 100%; with Septoria nodorum (SEP), 100%. Further, the inhibition of growth at 25 ppm worked out at 0% with Botrytis cinerea (BOC), 0% in assay [4] and 100% in the assay on Fusarium roseum (FUS). In addition, the MIC in the assay on THREE FUNGI (setting [8]) was 25 µg/mL; with THREE FUNGI (setting [9]), 50 µg/mL; with THREE FUNGI (setting [10]), 12.5 µg/mL; in assay [1] (read-out: MIC (F) APUL, M9G (minimal salts media with glucose), Table IIIa) it was 3 µg/mL; with Escherichia coli (ECOL) (Table IIIa) it was more than 100 µg/mL; in assay [5] (Table IIIa) it was more than 100 µg/mL. Also, the MIC in assay [6] (Table IIIa) is more than 100 µg/mL; in assay [7] (Table IIIa), more than 100 µg/mL; with Aspergillus niger (ANIG) (read-out: MIC (F) ANIG, M9G (minimal salts media with glucose), Table IIIa), 6.3 µg/mL.
With `C[C@H](NC(=O)OC(C)(C)C)C(=O)NCC(=O)OCC#CI` [Compound 12, N-t-butoxycarbonyl-L-alanylglycine iodopropargyl ester], the inhibition of growth at 25 ppm was found to be 100% with Pythium ultimum (PYU); 100% in the assay with Piricularia oryzae (PIR); 100% with Rhizoctonia solani (RHI); 0% in assay [2]; 100% in assay [3]; 95% in the assay on Septoria nodorum (SEP). In addition, the inhibition of growth at 25 ppm (with Botrytis cinerea (BOC); in [4]; in the assay with Fusarium roseum (FUS)) was 0% throughout. Further, the MIC with THREE FUNGI (setting [11]) is 25 µg/mL (≈ 60.9 µM); with THREE FUNGI (setting [12]), more than 50 µg/mL; with THREE FUNGI (setting [13]), 6.2 µg/mL (≈ 15.1 µM); in assay [1] (setting [14]), less than 0.8 µg/mL; with Escherichia coli (ECOL) (setting [15]) it was 50 µg/mL; in [5] (setting [15]), 50 µg/mL. Besides, the MIC is 50 µg/mL in assay [6] (setting [15]), 50 µg/mL in [7] (setting [15]) and 6 µg/mL with Aspergillus niger (ANIG) (setting [16]).
For the compound `C[C@H](NC(=O)OC(C)(C)C)C(=O)N[C@@H](C)C(=O)OCC#CI` [Compound 13, N-t-butoxycarbonyl-L-alanyl-L-alanine iodopropargyl ester], the inhibition of growth at 25 ppm (in the assay on Pythium ultimum (PYU); with Piricularia oryzae (PIR); with Rhizoctonia solani (RHI); in [2]; in assay [3]; in the assay with Septoria nodorum (SEP)) was 100% in each case. Also, the inhibition of growth at 25 ppm was determined as 50% with Botrytis cinerea (BOC), 0% in assay [4] and 100% in the assay on Fusarium roseum (FUS). Besides, the minimum inhibitory concentration (MIC) in the assay with THREE FUNGI (setting [11]) was 25 µg/mL (≈ 58.9 µM); with THREE FUNGI (setting [12]), 50 µg/mL (≈ 118 µM); in the assay with THREE FUNGI (setting [13]) it was 6.2 µg/mL (≈ 14.6 µM); in assay [1] (setting [14]), less than 0.8 µg/mL; in the assay with Escherichia coli (ECOL) (setting [15]), 100 µg/mL; in assay [5] (setting [15]), 50 µg/mL. The values for the MIC (in assay [6] (setting [15]); in assay [7] (setting [15]); in the assay on Aspergillus niger (ANIG) (setting [16])) were 50 µg/mL, 50 µg/mL and less than 0.8 µg/mL, respectively.
Take `C[C@H](NC(=O)OC(C)(C)C)C(=O)N[C@@H](COCc1ccccc1)C(=O)OCC#CI` [Compound 14, N-t-butoxycarbonyl-L-alanyl-O-benzyl-L-serine iodopropargyl ester]: the inhibition of growth at 25 ppm in the assay on Pythium ultimum (PYU) came to 0%; in the assay with Piricularia oryzae (PIR) it was 100%; in the assay with Rhizoctonia solani (RHI), 90%; in assay [2], 50%; in assay [3] it was 75%; in the assay with Septoria nodorum (SEP), 0%. In addition, the values for the inhibition of growth at 25 ppm (in the assay with Botrytis cinerea (BOC); in [4]; in the assay with Fusarium roseum (FUS)) were 0%, 0% and 100%, respectively. Moreover, the MIC was 50 µg/mL (≈ 94.3 µM) with THREE FUNGI (setting [11]); more than 50 µg/mL in the assay on THREE FUNGI (setting [12]); 12.5 µg/mL (≈ 23.6 µM) in the assay on THREE FUNGI (setting [13]); less than 0.8 µg/mL in assay [1] (setting [14]); more than 100 µg/mL in the assay with Escherichia coli (ECOL) (setting [15]); 50 µg/mL in [5] (setting [15]). For the same compound, the MIC amounted to 100 µg/mL in assay [6] (setting [15]), 100 µg/mL in assay [7] (setting [15]) and 6 µg/mL with Aspergillus niger (ANIG) (setting [16]).
On to `C[C@H](NC(=O)OC(C)(C)C)C(=O)N[C@@H](CSCc1ccccc1)C(=O)OCC#CI` [Compound 15, N-t-butoxycarbonyl-L-alanyl-S-benzyl-L-cysteine iodopropargyl ester], for which the inhibition of growth at 25 ppm was determined as 100% in the assay with Pythium ultimum (PYU); 100% in the assay with Piricularia oryzae (PIR); 100% with Rhizoctonia solani (RHI); 0% in [2]; 100% in assay [3]; 100% in the assay on Septoria nodorum (SEP). Besides, the results for the inhibition of growth at 25 ppm (in the assay on Botrytis cinerea (BOC); in [4]; in the assay with Fusarium roseum (FUS)) were 0%, 0% and 100%, respectively. For the same compound, the MIC in the assay with THREE FUNGI (setting [11]) was more than 50 µg/mL; in the assay on THREE FUNGI (setting [12]), more than 50 µg/mL; in the assay on THREE FUNGI (setting [13]), 50 µg/mL (≈ 91.5 µM); in [1] (setting [14]) it was 1.6 µg/mL; with Escherichia coli (ECOL) (setting [15]), more than 100 µg/mL; in [5] (setting [15]), more than 100 µg/mL. Moreover, the results for the MIC (in assay [6] (setting [15]); in assay [7] (setting [15]); with Aspergillus niger (ANIG) (setting [16])) were more than 100 µg/mL, more than 100 µg/mL and 6 µg/mL, respectively.
For the compound `C[C@H](NC(=O)OC(C)(C)C)C(=O)N[C@H](C(=O)OCC#CI)[C@@H](C)OCc1ccccc1` [Compound 16, N-t-butoxycarbonyl-L-alanyl-O-benzyl-L-threonine iodopropargyl ester], the inhibition of growth at 25 ppm in the assay with Pythium ultimum (PYU) was determined as 100%; in the assay on Piricularia oryzae (PIR), 100%; in the assay on Rhizoctonia solani (RHI), 100%; in [2], 0%; in [3], 0%; in the assay with Septoria nodorum (SEP) it was 100%. The inhibition of growth at 25 ppm (in the assay with Botrytis cinerea (BOC); in assay [4]; with Fusarium roseum (FUS)) was 0% throughout. Besides, the MIC is more than 50 µg/mL in the assay with THREE FUNGI (setting [11]); more than 50 µg/mL in the assay on THREE FUNGI (setting [12]); 25 µg/mL (≈ 45.9 µM) in the assay on THREE FUNGI (setting [13]); less than 0.8 µg/mL in [1] (setting [14]); more than 100 µg/mL in the assay on Escherichia coli (ECOL) (setting [15]); more than 100 µg/mL in assay [5] (setting [15]). Moreover, the MIC in assay [6] (setting [15]) was 6 µg/mL; in [7] (setting [15]), more than 100 µg/mL; with Aspergillus niger (ANIG) (setting [16]) it was 13 µg/mL.
As to `C[C@H](N)C(=O)NCC(=O)OCC#CI` [Compound 17, L-alanylglycine iodopropargyl ester trifluoroacetate], the inhibition of growth at 25 ppm with Pythium ultimum (PYU) is 100%; with Piricularia oryzae (PIR) it was 100%; in the assay with Rhizoctonia solani (RHI), 100%; in [2] it was 50%; in assay [3], 100%; in the assay with Septoria nodorum (SEP), 75%. Also, the inhibition of growth at 25 ppm amounted to 75% in the assay on Botrytis cinerea (BOC), 0% in assay [4] and 100% with Fusarium roseum (FUS). In addition, the MIC in the assay on THREE FUNGI (setting [8]) was 12.5 µg/mL; in the assay on THREE FUNGI (setting [9]), 50 µg/mL; in the assay on THREE FUNGI (setting [10]) it was 25 µg/mL; in assay [1] (read-out: MIC (F) APUL, M9G (minimal salts media with glucose), Table IIIc, iodopropargyl esters of peptides), less than 0.8 µg/mL; with Escherichia coli (ECOL) (setting [15]) it was 100 µg/mL; in [5] (setting [15]) it was 100 µg/mL. For the same compound, the MIC in assay [6] (setting [15]) was 100 µg/mL; in assay [7] (setting [15]) it was 100 µg/mL; in the assay with Aspergillus niger (ANIG) (read-out: MIC (F) ANIG, M9G (minimal salts media with glucose), Table IIIc, iodopropargyl esters of peptides), less than 0.8 µg/mL.

The values above are taken from patent EP0414533A1, “Use of iodopropargyl esters of alpha-amino acid derivatives as antimicrobial agents” (ROHM AND HAAS COMPANY, priority 1989, dated 1991).
